Measured values taken from PubChem BioAssay (NCI).
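Growth conditions: 96-well plates. Treatment: test compound, 48 hours, 5 concentrations. Analysis: linear interpolation between bracketing concentrations; unreached endpoints set to highest concentration. TGI: total growth inhibition.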

What was measured:
Experiment in all cases: NCI-60 cell line screen, 48 h
KM20L2 colon = test system: KM20L2 colon
SF-295 CNS = test system: SF-295 CNS
HL-60(TB) leukemia = test system: HL-60(TB) leukemia
UACC-257 melanoma = test system: UACC-257 melanoma
NCI-H460 lung = test system: NCI-H460 lung
SF-539 CNS = test system: SF-539 CNS
OVCAR-3 ovarian = test system: OVCAR-3 ovarian
SNB-78 CNS = test system: SNB-78 CNS
TK-10 renal = test system: TK-10 renal
OVCAR-4 ovarian = test system: OVCAR-4 ovarian
SK-OV-3 ovarian = test system: SK-OV-3 ovarian
M19-MEL melanoma = test system: M19-MEL melanoma
NCI-H522 lung = test system: NCI-H522 lung
DMS 114 small cell lung = test system: DMS 114 small cell lung
SW-620 colon = test system: SW-620 colon
UO-31 renal = test system: UO-31 renal
LOX IMVI melanoma = test system: LOX IMVI melanoma
COLO 205 colon = test system: COLO 205 colon
NCI-H23 lung = test system: NCI-H23 lung
MOLT-4 leukemia = test system: MOLT-4 leukemia
SF-268 CNS = test system: SF-268 CNS
EKVX NSCLC = test system: EKVX NSCLC
SR leukemia = test system: SR leukemia
CCRF-CEM leukemia = test system: CCRF-CEM leukemia
M14 melanoma = test system: M14 melanoma
RXF 393 renal = test system: RXF 393 renal
HCC-2998 colon = test system: HCC-2998 colon
MALME-3M melanoma = test system: MALME-3M melanoma
786-0 renal = test system: 786-0 renal
RPMI-8226 leukemia = test system: RPMI-8226 leukemia
HOP-92 NSCLC = test system: HOP-92 NSCLC
HOP-62 NSCLC = test system: HOP-62 NSCLC
A549 NSCLC = test system: A549 NSCLC
SK-MEL-2 melanoma = test system: SK-MEL-2 melanoma
HT29 colon = test system: HT29 colon
ACHN renal = test system: ACHN renal
K-562 leukemia = test system: K-562 leukemia
A498 renal = test system: A498 renal
OVCAR-8 ovarian = test system: OVCAR-8 ovarian
HCT-116 colon = test system: HCT-116 colon
NCI-H226 lung = test system: NCI-H226 lung
KM12 colon = test system: KM12 colon
SNB-75 CNS = test system: SNB-75 CNS
SNB-19 CNS = test system: SNB-19 CNS
CAKI-1 renal = test system: CAKI-1 renal
UACC-62 melanoma = test system: UACC-62 melanoma
SK-MEL-28 melanoma = test system: SK-MEL-28 melanoma
HCT-15 colon = test system: HCT-15 colon
SN12C renal = test system: SN12C renal
IGROV1 ovarian = test system: IGROV1 ovarian
SK-MEL-5 melanoma = test system: SK-MEL-5 melanoma
U251 CNS = test system: U251 CNS
OVCAR-5 ovarian = test system: OVCAR-5 ovarian
DMS 273 small cell lung = test system: DMS 273 small cell lung

Measured: TGI

C=CCCCC(C#N)(c1ccccc1)N1CCCC1 (centres undefined)
> 100 µM: all assays above
